From PMC7395068, “The evolution of strategies to minimise the risk of human drug-induced liver injury (DILI) in drug discovery and development” (Archives of Toxicology, 2020)
Where two headings read alike, the source gives them in different places.

Key:
PHH = details: cited from earlier work
hLiMTs [1] = details: cited from earlier work
hLiMTs [2] = assay: Combined HCI (HCS) and cellular ATP 3D assay in hLiMTs; details: for AC50 / minimal effective concentration: Homo sapiens
HepaRG spheroids = assay: Combined HCI (HCS) and cellular ATP 3D assay in HepaRG spheroids; details: HepaRG; for AC50 / minimal effective concentration: Homo sapiens
[3] = test system: isolated mouse liver mitochondria; details: In vitro Assay; ref Porceddu 2012; cited from earlier work
[4] = test system: primary human hepatocytes, NIH3T3 fibroblasts, BSEP, CYP3A4; details: In vitro Assay; ref Schadt 2015; cited from earlier work
[5] = cited from earlier work
[6] = cited from earlier work; remark: listed apart in the source
[7] = test system: THLE or HepG2 cells, isolated mitochondria, BSEP; details: In vitro Assay; ref Aleo 2019; cited from earlier work
[8] = In vitro Assay, ref Proctor 2017

Row | SMILES | PHH ATP <100uM (PHH; [8]) | hLiMTs ATP <100uM (hLiMTs [1]; [8]) | Cellular toxicity (3T3 cells) [4] | Combined Assay [4] | GSH adduct HML [4] | Hepatocyte cellular toxicity [4] | MitoTox 3T3 [4] | TDI CYP3A4 [4] | hBSEP inhibition [4] | In vivo DILI ([5]; ref Proctor 2017) | PHH ATP <100uM (PHH) | hLiMTs ATP <100uM (hLiMTs [1]) | also measured
1 | NCCCC(O)(P(=O)(O)O)P(=O)(O)O [alendronate] | -VE | -VE |  |  |  |  |  |  |  |  |  |  | PHH/100uM, Proctor (2017) (PHH; 2D PHH, ATP, IC50 threshold 100 µM, ref Proctor et al. 2017): -VE; hLiMTs/100uM, Proctor (2017) (hLiMTs [1]; hLiMTs, ATP, IC50 threshold 100 µM, ref Proctor et al. 2017): -VE; AC50 (hLiMTs [2]; read-out: ATP endpoint AC50): 7.71 µM; minimal effective concentration (hLiMTs [2]; read-out: ATP endpoint MEC): 2.86 µM; AC50 (hLiMTs [2]; read-out: HCS endpoint AC50): 15.6 µM; minimal effective concentration (hLiMTs [2]; read-out: HCS endpoint MEC): 2.24 µM; hLiMTs <10 uM All (hLiMTs [2]; hLiMTs, all endpoints, cut-off <10 uM): +ve (<10 uM); HepaRG <10 uM All (HepaRG spheroids; all endpoints, cut-off <10 uM): +ve (<10 uM); AC50 (HepaRG spheroids; read-out: ATP endpoint AC50): 0.822 µM; minimal effective concentration (HepaRG spheroids; read-out: ATP endpoint MEC): 0.291 µM; AC50 (HepaRG spheroids; read-out: HCS endpoint AC50): 3.13 µM; minimal effective concentration (HepaRG spheroids; read-out: HCS endpoint MEC): 0.58 µM
2 | CC(C)c1c(C(=O)Nc2ccccc2)c(-c2ccccc2)c(-c2ccc(F)cc2)n1CC[C@@H](O)C[C@@H](O)CC(=O)O [atorvastatin] | -VE | +VE (IC50 threshold of 100 µM) |  |  |  |  |  |  |  |  |  |  | in vitro data EC20<=2uM [3]: +VE
3 | [H]/N=C(/N)c1ccc(NCc2nc3cc(C(=O)N(CCC(=O)O)c4ccccn4)ccc3n2C)cc1 [dabigatran] | -VE | -VE | -VE | -VE | -VE | +VE | -VE | -VE | +VE | -VE |  |  | In vivo DILI ([5]; ref Schadt 2015): -VE
4 | CCN1C(=O)NC(c2ccccc2)C1=O (stereo not shown) [ethotion] |  |  |  |  |  |  |  |  |  |  | -VE | -VE | 
5 | CCOC(=O)C1=C(C)NC(C)=C(C(=O)OC)C1c1cccc(Cl)c1Cl (stereo not shown) [felodipine] |  |  |  |  |  |  |  |  |  |  | -VE | -VE | DILI +VE (5-8), DILI -VE (-4) ([6]; in vivo): +VE; DILI severity category ([6]; in vivo): vLess-DILI-Concern; In vivo DILI ([5]; in vivo): -VE
6 | C[N+](C)(C)C[C@H](O)CC(=O)[O-] [levocarnitine] | -VE | -VE |  |  |  |  |  |  |  | -VE |  |  | 
7 | Cc1cnc(NC(=O)C2=C(O)c3ccccc3S(=O)(=O)N2C)s1 [meloxicam] |  |  | -VE | -VE | -VE | -VE | -VE | -VE | -VE |  | -VE | -VE | DILI +VE (5-8), DILI -VE (-4) ([6]; in vivo): +VE; DILI severity category ([6]; in vivo): vLess-DILI-Concern
8 | CO[C@@]12[C@H](COC(N)=O)C3=C(C(=O)C(C)=C(N)C3=O)N1C[C@@H]1N[C@@H]12 [mitomycin] |  |  |  |  |  |  |  |  |  |  | +VE (key: +VE: IC50 threshold of 100 µM) |  | 
9 | CC(C)(C)NC[C@H](O)COc1ccccc1C1CCCC1 [penbutolol] | +VE (IC50 threshold of 100 µM) | +VE (IC50 threshold of 100 µM) | -VE | -VE | -VE | -VE | -VE | -VE | -VE | -VE |  |  | DILI +VE (5-8), DILI -VE (-4) ([6]; ref Chen 2016): -VE; DILI severity category ([6]; ref Chen 2016): vNo-DILI-Concern; Partition Hybrid HRM Score [7]: -VE; Ro2 Hybrid HRM Score [7]: -VE; In vivo DILI ([5]; ref Aleo 2019): -VE; In vivo DILI ([5]; ref Schadt 2015): -VE
10 | OC(CCN1CCCC1)(c1ccccc1)C1CCCCC1 (stereo not shown) [procyclidine] |  |  |  |  |  |  |  |  |  |  | +VE (key: +VE: IC50 threshold of 100 µM) | -VE | DILI +VE (5-8), DILI -VE (-4) ([6]; in vivo): -VE; DILI severity category ([6]; in vivo): vNo-DILI-Concern; In vivo DILI ([5]; in vivo): -VE
11 | Cn1c(=O)c2[nH]cnc2n(C)c1=O [theophylline] |  |  | -VE | -VE | -VE | -VE | -VE | -VE | -VE |  | -VE | -VE | 
12 | CC1=C(/C=C/C(C)=C/C=C/C(C)=C/C(=O)O)C(C)(C)CCC1 [tretinoin] | -VE | +VE (IC50 threshold of 100 µM) |  |  |  |  |  |  |  | +VE |  |  | DILI +VE (5-8), DILI -VE (-4) ([6]; ref Chen 2016): -VE; DILI severity category ([6]; ref Chen 2016): Ambiguous DILI-concern
